From the supplement of paper PMC10307832

Legend:
Assay in all cases: relative viability (nuclei count vs DMSO), 5 days (fraction); higher = more cells survive
Venetoclax + AZD7762 = compound: CC1(C)CCC(CN2CCN(c3ccc(C(=O)NS(=O)(=O)c4ccc(NCC5CCOCC5)c([N+](=O)[O-])c4)c(Oc4cnc5[nH]ccc5c4)c3)CC2)=C(c2ccc(Cl)cc2)C1 [Venetoclax] + NC(=O)Nc1cc(-c2cccc(F)c2)sc1C(=O)N[C@H]1CCCNC1 [AZD7762] (partner 0.2 µM)
Procedure, shortened: (§1)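 A single step with final 0.05% Triton X-100, 1% formaldehyde and 1 ug/ml Hoechst fixed the cells and stained nuclei 5 days after treatment. Lung cancer cell lines in 1536-well plates had been treated by pin tool the day after seeding with one drug alone or a fixed anchor-drug dose plus five library-drug doses (not always all listed) in √10 steps, and nuclei were counted on 4× images. Relative viability is the ratio of nuclei in treated wells to nuclei in vehicle wells, taken as the median of duplicate plates.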

Venetoclax + Olaparib = compound: CC1(C)CCC(CN2CCN(c3ccc(C(=O)NS(=O)(=O)c4ccc(NCC5CCOCC5)c([N+](=O)[O-])c4)c(Oc4cnc5[nH]ccc5c4)c3)CC2)=C(c2ccc(Cl)cc2)C1 [Venetoclax] + O=C(c1cc(Cc2n[nH]c(=O)c3ccccc23)ccc1F)N1CCN(C(=O)C2CC2)CC1 [Olaparib] (partner 8 µM)
Procedure, shortened: as §1

Selumetinib + Foretinib = compound: Cn1cnc2c(F)c(Nc3ccc(Br)cc3Cl)c(C(=O)NOCCO)cc21 [Selumetinib] + COc1cc2c(Oc3ccc(NC(=O)C4(C(=O)Nc5ccc(F)cc5)CC4)cc3F)ccnc2cc1OCCCN1CCOCC1 [Foretinib] (partner 0.25 µM)
Procedure, shortened: as §1

Selumetinib + Crizotinib = compound: Cn1cnc2c(F)c(Nc3ccc(Br)cc3Cl)c(C(=O)NOCCO)cc21 [Selumetinib] + C[C@@H](Oc1cc(-c2cnn(C3CCNCC3)c2)cnc1N)c1c(Cl)ccc(F)c1Cl [Crizotinib] (partner 1 µM)
Procedure, shortened: as §1

## 201T
Venetoclax + AZD7762; first compound 0.01 µM
  relative viability: 0.572
Venetoclax + AZD7762; first compound 0.03162 µM
  relative viability: 0.634
Venetoclax + AZD7762; first compound 0.1 µM
  relative viability: 0.612
Venetoclax + AZD7762; first compound 0.3162 µM
  relative viability: 0.644
Venetoclax + AZD7762; first compound 1 µM
  relative viability: 0.639
Venetoclax + Olaparib; first compound 0.01 µM
  relative viability: 0.822
Venetoclax + Olaparib; first compound 0.03162 µM
  relative viability: 0.868
Venetoclax + Olaparib; first compound 0.1 µM
  relative viability: 0.811
Venetoclax + Olaparib; first compound 0.3162 µM
  relative viability: 0.846
Venetoclax + Olaparib; first compound 1 µM
  relative viability: 0.829
Selumetinib + Foretinib; first compound 0.02 µM
  relative viability: 0.977
Selumetinib + Foretinib; first compound 0.06325 µM
  relative viability: 0.978
Selumetinib + Foretinib; first compound 0.2 µM
  relative viability: 1.05
Selumetinib + Foretinib; first compound 0.6325 µM
  relative viability: 0.874
Selumetinib + Crizotinib; first compound 0.02 µM
  relative viability: 1.01
Selumetinib + Crizotinib; first compound 0.06325 µM
  relative viability: 0.99
Selumetinib + Crizotinib; first compound 0.2 µM
  relative viability: 0.93
Selumetinib + Crizotinib; first compound 0.6325 µM
  relative viability: 0.902

## A549
Venetoclax + Olaparib; first compound 0.01 µM
  relative viability: 0.302
Venetoclax + Olaparib; first compound 0.03162 µM
  relative viability: 0.376
Venetoclax + Olaparib; first compound 0.1 µM
  relative viability: 0.311
Venetoclax + Olaparib; first compound 0.3162 µM
  relative viability: 0.35
Venetoclax + Olaparib; first compound 1 µM
  relative viability: 0.339
Selumetinib + Foretinib; first compound 0.02 µM
  relative viability: 0.779
Selumetinib + Foretinib; first compound 0.06325 µM
  relative viability: 0.581
Selumetinib + Foretinib; first compound 0.2 µM
  relative viability: 0.546
Selumetinib + Foretinib; first compound 0.6325 µM
  relative viability: 0.32
Selumetinib + Crizotinib; first compound 0.02 µM
  relative viability: 0.715
Selumetinib + Crizotinib; first compound 0.06325 µM
  relative viability: 0.656
Selumetinib + Crizotinib; first compound 0.2 µM
  relative viability: 0.495
Selumetinib + Crizotinib; first compound 0.6325 µM
  relative viability: 0.402

## A-427
Venetoclax + AZD7762; first compound 0.01 µM
  relative viability: 0.752
Venetoclax + AZD7762; first compound 0.03162 µM
  relative viability: 0.762
Venetoclax + AZD7762; first compound 0.1 µM
  relative viability: 0.674
Venetoclax + AZD7762; first compound 0.3162 µM
  relative viability: 0.784
Venetoclax + AZD7762; first compound 1 µM
  relative viability: 0.709
Venetoclax + Olaparib; first compound 0.01 µM
  relative viability: 0.709
Venetoclax + Olaparib; first compound 0.03162 µM
  relative viability: 0.709
Venetoclax + Olaparib; first compound 0.1 µM
  relative viability: 0.821
Venetoclax + Olaparib; first compound 0.3162 µM
  relative viability: 0.657
Venetoclax + Olaparib; first compound 1 µM
  relative viability: 0.778
Selumetinib + Foretinib; first compound 0.02 µM
  relative viability: 1.17
Selumetinib + Foretinib; first compound 0.06325 µM
  relative viability: 1.11
Selumetinib + Foretinib; first compound 0.2 µM
  relative viability: 0.954
Selumetinib + Foretinib; first compound 0.6325 µM
  relative viability: 0.756
Selumetinib + Crizotinib; first compound 0.02 µM
  relative viability: 0.88
Selumetinib + Crizotinib; first compound 0.06325 µM
  relative viability: 0.768
Selumetinib + Crizotinib; first compound 0.2 µM
  relative viability: 0.73
Selumetinib + Crizotinib; first compound 0.6325 µM
  relative viability: 0.701

## ABC-1
Venetoclax + AZD7762; first compound 0.01 µM
  relative viability: 0.631
Venetoclax + AZD7762; first compound 0.03162 µM
  relative viability: 0.955
Venetoclax + AZD7762; first compound 0.1 µM
  relative viability: 0.929
Venetoclax + AZD7762; first compound 0.3162 µM
  relative viability: 0.888
Venetoclax + AZD7762; first compound 1 µM
  relative viability: 0.878
Venetoclax + Olaparib; first compound 0.01 µM
  relative viability: 0.711
Venetoclax + Olaparib; first compound 0.03162 µM
  relative viability: 0.721
Venetoclax + Olaparib; first compound 0.1 µM
  relative viability: 0.87
Venetoclax + Olaparib; first compound 0.3162 µM
  relative viability: 0.641
Venetoclax + Olaparib; first compound 1 µM
  relative viability: 0.686
Selumetinib + Foretinib; first compound 0.02 µM
  relative viability: 0.906
Selumetinib + Foretinib; first compound 0.06325 µM
  relative viability: 0.882
Selumetinib + Foretinib; first compound 0.2 µM
  relative viability: 0.951
Selumetinib + Foretinib; first compound 0.6325 µM
  relative viability: 0.767
Selumetinib + Crizotinib; first compound 0.02 µM
  relative viability: 1.57
Selumetinib + Crizotinib; first compound 0.06325 µM
  relative viability: 1.03
Selumetinib + Crizotinib; first compound 0.2 µM
  relative viability: 1.11
Selumetinib + Crizotinib; first compound 0.6325 µM
  relative viability: 1.12

## BEN
Venetoclax + AZD7762; first compound 0.01 µM
  relative viability: 0.771
Venetoclax + AZD7762; first compound 0.03162 µM
  relative viability: 0.746
Venetoclax + AZD7762; first compound 0.1 µM
  relative viability: 0.611
Venetoclax + AZD7762; first compound 0.3162 µM
  relative viability: 0.836
Venetoclax + AZD7762; first compound 1 µM
  relative viability: 0.637
Venetoclax + Olaparib; first compound 0.01 µM
  relative viability: 1.07
Venetoclax + Olaparib; first compound 0.03162 µM
  relative viability: 1.21
Venetoclax + Olaparib; first compound 0.1 µM
  relative viability: 0.97
Venetoclax + Olaparib; first compound 0.3162 µM
  relative viability: 1.1
Venetoclax + Olaparib; first compound 1 µM
  relative viability: 1.02
Selumetinib + Foretinib; first compound 0.02 µM
  relative viability: 0.692
Selumetinib + Foretinib; first compound 0.06325 µM
  relative viability: 0.714
Selumetinib + Foretinib; first compound 0.2 µM
  relative viability: 0.667
Selumetinib + Foretinib; first compound 0.6325 µM
  relative viability: 0.546
Selumetinib + Crizotinib; first compound 0.02 µM
  relative viability: 0.773
Selumetinib + Crizotinib; first compound 0.06325 µM
  relative viability: 0.873
Selumetinib + Crizotinib; first compound 0.2 µM
  relative viability: 0.834
Selumetinib + Crizotinib; first compound 0.6325 µM
  relative viability: 0.776

## CAL-12T
Venetoclax + AZD7762; first compound 0.01 µM
  relative viability: 0.584
Venetoclax + AZD7762; first compound 0.03162 µM
  relative viability: 0.644
Venetoclax + AZD7762; first compound 0.1 µM
  relative viability: 0.638
Venetoclax + AZD7762; first compound 0.3162 µM
  relative viability: 0.636
Venetoclax + AZD7762; first compound 1 µM
  relative viability: 0.435
Venetoclax + Olaparib; first compound 0.01 µM
  relative viability: 0.675
Venetoclax + Olaparib; first compound 0.03162 µM
  relative viability: 0.715
Venetoclax + Olaparib; first compound 0.1 µM
  relative viability: 0.732
Venetoclax + Olaparib; first compound 0.3162 µM
  relative viability: 0.709
Venetoclax + Olaparib; first compound 1 µM
  relative viability: 0.634
Selumetinib + Foretinib; first compound 0.02 µM
  relative viability: 1.05
Selumetinib + Foretinib; first compound 0.06325 µM
  relative viability: 1.04
Selumetinib + Foretinib; first compound 0.2 µM
  relative viability: 1.14
Selumetinib + Foretinib; first compound 0.6325 µM
  relative viability: 0.839
Selumetinib + Crizotinib; first compound 0.02 µM
  relative viability: 0.621
Selumetinib + Crizotinib; first compound 0.06325 µM
  relative viability: 0.573
Selumetinib + Crizotinib; first compound 0.2 µM
  relative viability: 0.704
Selumetinib + Crizotinib; first compound 0.6325 µM
  relative viability: 0.597

## COR-L23
Venetoclax + Olaparib; first compound 0.01 µM
  relative viability: 0.331
Venetoclax + Olaparib; first compound 0.03162 µM
  relative viability: 0.473
Venetoclax + Olaparib; first compound 0.1 µM
  relative viability: 0.313
Venetoclax + Olaparib; first compound 0.3162 µM
  relative viability: 0.382
Venetoclax + Olaparib; first compound 1 µM
  relative viability: 0.314
Selumetinib + Foretinib; first compound 0.02 µM
  relative viability: 0.999
Selumetinib + Foretinib; first compound 0.06325 µM
  relative viability: 1.01
Selumetinib + Foretinib; first compound 0.2 µM
  relative viability: 0.933
Selumetinib + Foretinib; first compound 0.6325 µM
  relative viability: 0.934
Selumetinib + Crizotinib; first compound 0.02 µM
  relative viability: 0.798
Selumetinib + Crizotinib; first compound 0.06325 µM
  relative viability: 0.653
Selumetinib + Crizotinib; first compound 0.2 µM
  relative viability: 0.556
Selumetinib + Crizotinib; first compound 0.6325 µM
  relative viability: 0.622

## COR-L 105
Venetoclax + Olaparib; first compound 0.01 µM
  relative viability: 0.518
Venetoclax + Olaparib; first compound 0.03162 µM
  relative viability: 0.718
Venetoclax + Olaparib; first compound 0.1 µM
  relative viability: 0.709
Venetoclax + Olaparib; first compound 0.3162 µM
  relative viability: 0.691
Venetoclax + Olaparib; first compound 1 µM
  relative viability: 0.674
Selumetinib + Foretinib; first compound 0.02 µM
  relative viability: 0.978
Selumetinib + Foretinib; first compound 0.06325 µM
  relative viability: 1.1
Selumetinib + Foretinib; first compound 0.2 µM
  relative viability: 0.846
Selumetinib + Foretinib; first compound 0.6325 µM
  relative viability: 0.534
Selumetinib + Crizotinib; first compound 0.02 µM
  relative viability: 0.855
Selumetinib + Crizotinib; first compound 0.06325 µM
  relative viability: 0.689
Selumetinib + Crizotinib; first compound 0.2 µM
  relative viability: 0.714
Selumetinib + Crizotinib; first compound 0.6325 µM
  relative viability: 0.635

## Calu-6
Venetoclax + Olaparib; first compound 0.01 µM
  relative viability: 0.609
Venetoclax + Olaparib; first compound 0.03162 µM
  relative viability: 0.619
Venetoclax + Olaparib; first compound 0.1 µM
  relative viability: 0.602
Venetoclax + Olaparib; first compound 0.3162 µM
  relative viability: 0.554
Venetoclax + Olaparib; first compound 1 µM
  relative viability: 0.546
Selumetinib + Foretinib; first compound 0.02 µM
  relative viability: 0.817
Selumetinib + Foretinib; first compound 0.06325 µM
  relative viability: 0.702
Selumetinib + Foretinib; first compound 0.2 µM
  relative viability: 0.515
Selumetinib + Foretinib; first compound 0.6325 µM
  relative viability: 0.383
Selumetinib + Crizotinib; first compound 0.02 µM
  relative viability: 0.804
Selumetinib + Crizotinib; first compound 0.06325 µM
  relative viability: 0.603
Selumetinib + Crizotinib; first compound 0.2 µM
  relative viability: 0.51
Selumetinib + Crizotinib; first compound 0.6325 µM
  relative viability: 0.343

## ChaGo-K-1
Venetoclax + AZD7762; first compound 0.01 µM
  relative viability: 0.884
Venetoclax + AZD7762; first compound 0.03162 µM
  relative viability: 0.854
Venetoclax + AZD7762; first compound 0.1 µM
  relative viability: 0.849
Venetoclax + AZD7762; first compound 0.3162 µM
  relative viability: 0.888
Venetoclax + AZD7762; first compound 1 µM
  relative viability: 0.85
Venetoclax + Olaparib; first compound 0.01 µM
  relative viability: 0.341
Venetoclax + Olaparib; first compound 0.03162 µM
  relative viability: 0.48
Venetoclax + Olaparib; first compound 0.1 µM
  relative viability: 0.437
Venetoclax + Olaparib; first compound 0.3162 µM
  relative viability: 0.5
Venetoclax + Olaparib; first compound 1 µM
  relative viability: 0.439
Selumetinib + Foretinib; first compound 0.02 µM
  relative viability: 0.833
Selumetinib + Foretinib; first compound 0.06325 µM
  relative viability: 0.924
Selumetinib + Foretinib; first compound 0.2 µM
  relative viability: 0.906
Selumetinib + Foretinib; first compound 0.6325 µM
  relative viability: 0.769
Selumetinib + Crizotinib; first compound 0.02 µM
  relative viability: 1.12
Selumetinib + Crizotinib; first compound 0.06325 µM
  relative viability: 1.18
Selumetinib + Crizotinib; first compound 0.2 µM
  relative viability: 1.11
Selumetinib + Crizotinib; first compound 0.6325 µM
  relative viability: 1.17
